Test results reported in BindingDB's records for doi:10.1021/jm00063a003 (Merck Sharp and Dohme Research Laboratories, 1993).

Assay: Displacement of [3H]mesulergine from pig cortex 5-hydroxytryptamine 1C receptor

Row | SMILES | IC50 [nM]
1 | NCCc1c[nH]c2ccc(Cc3nc(N)no3)cc12 | 3160
2 | CC(=O)Nc1ccc(Cc2noc(-c3ccc4[nH]cc(CCN)c4c3)n2)cc1 | 1580
3 | COc1ccc(Cc2noc(-c3ccc4[nH]cc(CCN)c4c3)n2)cc1 | 794
4 | NCCc1c[nH]c2ccc(-c3nc(C4CC4)no3)cc12 | 1000
5 | CN(C)CCc1c[nH]c2ccc(Cc3nc(N)ns3)cc12 | 251
6 | NCCc1c[nH]c2ccc(CCc3nc(Cc4ccccc4)no3)cc12 | 794
7 | Cc1noc(-c2ccc3[nH]cc(CCN)c3c2)n1 | 1260
8 | NCCc1c[nH]c2ccc(-c3nc(Cc4ccccc4)no3)cc12 | 3980
9 | Cc1noc(Cc2ccc3[nH]cc(CCN(C)C)c3c2)n1 | 1000
10 | Cc1noc(Cc2ccc3[nH]cc(CCN)c3c2)n1 | 1260
11 | CN(C)CCc1c[nH]c2ccc(CCc3nc(N)no3)cc12 | 1000
12 | CS(=O)(=O)Nc1ccc(Cc2noc(-c3ccc4[nH]cc(CCN)c4c3)n2)cc1 [L-694247] | 316
